Data taken from patent US20060263368A1, “Targeted chimeric molecules for cancer therapy” (Research Development Foundation, priority 2005, published 2006).

B1: scFv23: single chain antibody recognizing the cell surface domain of HER-2/neu (protein)
scFv: DVQLTQSPAILSASPGEKVTMTCRATPSVSYMHWYQQKPGSSPKPWIYTTSNLASGVPARFSGGGSGTSYSLTVSRVEAEDAATYYCQQWSRSPPTFGGGSKLEIKGSTSGSGKSSEGKGVQLQESGPEVVKPGGSMKISCKTSGYSFTGHTMNWVKQSHGKNLEWIGLINPYNGDTNYNQKFKGKATFTVDKSSSTAYMELLSLTSEDSAVYYCARRVTDWYFDVWGAGTTVTVSS

Assays:
A375-M Cells = assay: Combination studies of GrB/scFvMEL with chemotherapeutic agents; conditions: for antitumor activity on co-administration with GrB/scFvMEL: 72 hours
Experimental: Cells in exponential growth phase were plated into 96-well plates. After 24 hr, the cells were treated with drug-containing medium. At the end of the indicated incubation period, growth inhibition was assessed by crystal violet staining. In order to determine the effects of sequencing, cells were treated with different two sequences.
I.C.25 dose of either GrB/scFvMEL or chemotherapeutic agents have been used in combination studies.

[1] = system: AsPc-1, Capan-1, Capan-2, and L3.6pl; assay: cells; conditions: Homo sapiens, Pancreatic cancer cell
Experimental: (§4) To examine the potential mediation of the synergistic effect of combination treatments by activation of caspase-3 cells were pretreated with or without 100 μM caspase-3 inhibitor (Ac-DEVD-CHO) for 3 hr and then treated with their individual IC25 concentrations. After incubation for an additional 72 hr, remaining adherent cells were stained by adding 50 μl of crystal violet solution (0.5% w/v in 20% MeOH/H2O). Dye-stained cells were solubilized by addition of 100 μl of Sorenson's buffer [100 mM sodium citrate (pH 4.2) in 50% ethanol], and absorbance was measured at 630 nm using an ELISA plate reader (Bio-Tek Instruments, Inc., Winooski, Vt.).

Capan-2 = assay: In vitro cytotoxicity and combination study, crystal violet; assay type: cell-based, human; conditions: 72 hr of exposure
Description: (§1) If CI near to 1 indicates additive effect (ADD), CI>1 indicates antagonism (ANT), CI<1 indicates synergism (SYN).

AsPc-1 = assay: as above; assay type: cell-based, human; conditions: 72 hr of exposure
Description: as §1

L3.6pl = assay: as above; assay type: cell-based, human; conditions: 72 hr of exposure
Description: as §1

Capan-1 = assay: as above; assay type: cell-based, human; conditions: 72 hr of exposure
Description: as §1

L3.6pl cells = assay: Western blot of signal transduction effects; assay type: cell-based, human; parameters: key to Caspase-8 cleavage / Caspase-3 cleavage / PARP cleavage / Akt / p-Akt / Bcl-2: NE represents no effect; conditions: IC25 doses
Experimental: Cell lysates ([…]) were fractionated by 8-15% SDS-PAGE and transferred on Immobilon-P nitrocellulose membranes (Schleicher & Schuell Inc., Keene, N.H.). Membranes were blocked for 2 hours in Tris-buffered saline (TBS) containing 3% bovine serum albumin. Monoclonal anti-HER-2/neu Ab (Oncogene Research Products, San Diego, Calif.), rabbit polyclonal anti-HER-1 Ab, rabbit polyclonal anti-TNFR-1 Ab, rabbit polyclonal anti-TNFR-2 Ab, rabbit polyclonal anti-phospho Akt Ab, rabbit polyclonal anti-Akt, and goat anti-β-actin Ab were used for immunoblotting. Goat anti-mouse/goat anti-rabbit or swain anti-goat antibodies conjugated with horseradish peroxidase (Bio-Rad Laboratories, Hercules, Calif.) were used to visualize immunoreactive proteins at a 1:4000 dilution using ECL detection reagent (Amersham Pharmacia Biotech Inc., Piscataway, N.J.).
HER-2/neu over-expression results in activation of different downstream pathways such as the Akt kinase pathway, which leads to cell proliferation and cell survival. […] The activation of Akt kinase was then assessed by Western blot analysis using antibodies to Akt and to phospho-Akt. […]
To determine whether caspase-8 and caspase-3 were activated in L3.6pl cells during 5-FU+scFv23/TNF-induced cell death, the cleavage of caspase-8, caspase-3, and its substrate poly (ADP)-ribose polymerase (PARP) was investigated.

[2] = system: AsPc-1, Capan-1, Capan-2, and L3.6pl; conditions: pancreatic cancer cell lines
Experimental: as §4

parental A375 cells = assay: Cytotoxicity on parental and doxorubicin-resistant cells; assay type: cell-based; conditions: Homo sapiens, A-375; 72 hours
Experimental: (§2) To examine the cytotoxicity of GrB/scFvMEL or MEL/sFv/rGel, melanoma cells were plated on 96-well plates at a density of 4×10^3 cells per well and allowed to adhere for 24 hr at 37° C. in 5% CO2. After 24 hr, the medium was replaced with medium that contained various concentrations of fusion proteins. […] The percent of control refers to the percentage of cells in the drug-treated wells compared to that of control (untreated) wells.
(§3) Expression of the gp240 antigen was assessed by ELISA using ZME-018 antibody specifically recognizing gp240 antigen.

[3] = system: A375 doxorubicin-resistant (A375DR); assay: as above; assay type: cell-based; conditions: Homo sapiens, A-375; 72 hours
Experimental: as §2, §3

[4] = target: gp240 antigen (high-molecular-weight glycoprotein gp240 on human melanoma cells) (human) (UniProt Q6UVK1); assay: cell-based or functional assay
[5] = target: gp240 antigen (high-molecular-weight glycoprotein gp240 on human melanoma cells) (human) (UniProt Q6UVK1); assay: flow cytometry on MEL-526 cells stained with ZME-018 IgG2a and APC goat anti-mouse, against an isotype control
[6] = target: gp240 antigen (high-molecular-weight glycoprotein gp240 on human melanoma cells) (human) (UniProt Q6UVK1); assay: flow cytometry on TXM-1 cells (very low gp240) stained with ZME-018 IgG2a and APC goat anti-mouse, against an isotype control
[7] = target: gp240 antigen (high-molecular-weight glycoprotein gp240 on human melanoma cells) (human) (UniProt Q6UVK1); assay: flow cytometry on TXM-18L cells stained with ZME-018 IgG2a and APC goat anti-mouse, against an isotype control
[8] = target: gp240 antigen (high-molecular-weight glycoprotein gp240 on human melanoma cells) (human) (UniProt Q6UVK1); assay: flow cytometry on A375-M cells stained with ZME-018 IgG2a and APC goat anti-mouse, against an isotype control
[9] = system: HER-2-overexpressing SKBR-3/H cells; assay: Western blot, DNA fragmentation, TUNEL: signal transduction effects; assay type: cell-based, human; parameters: key to Akt / Caspase-8 cleavage / Caspase-3 cleavage / PARP cleavage / DNA fragmentation / IκB-α / TRADD / TRAF-2: NE represents no effect; conditions: 200 nM
Experimental: Apoptosis was detected by DNA fragmentation and TUNEL assay. […] After 24 hr and 48 hr, cells were washed with PBS, resuspended in a DNA extraction buffer containing 5 mM Tris-HCl, pH 8, 50 mM EDTA, 10 μg/ml RNAse, and 0.25% SDS and then incubated for 1 hr at 37° C. To remove protein, resuspended cell lysates were treated with 100 μg/ml proteinase K for 3 hr at 50° C. DNA was extracted using phenol and chloroform followed by ethanol precipitation. The genomic DNA was resuspended in Tris-EDTA (pH 8) and was fractionated by electrophoresis on a 1% agarose gel containing ethidium bromide.
The cells were washed with PBS, permeabilized (0.1% Triton X-100, 0.1% sodium citrate), and then fixed in 4% paraformaldehyde. Fixed cells were stained with in situ cell death detection kit (Roche). Cells undergoing apoptosis were identified by fluorescence microscopy.
After treatment, cells were washed twice with phosphate buffered saline (PBS) and lysed on ice for 20 min in 0.3 ml of lysis buffer (10 mM Tris-HCl, pH 8, 60 mM KCl, 1 mM EDTA, 1 mM DTT, 0.2% NP-40). Cell lysates (50 μg) were fractionated by 8-15% SDS-PAGE and electrophoretically transferred to Immobilon-P nitrocellulose membranes (Schleicher & Schuell Inc., Keene, N.H.). Membranes were blocked 2 hrs in Tris-buffered saline (TBS) containing 3% bovine serum albumin and then probed with various antibodies (monoclonal anti-HER-2/neu Ab, rabbit polyclonal anti-TNFR1 Ab, rabbit polyclonal anti-TNFR2 Ab, rabbit polyclonal anti-caspase-8 Ab, monoclonal anti-caspase-3 Ab, monoclonal anti-PARP Ab, rabbit polyclonal anti-TRADD Ab, rabbit polyclonal anti-TRAF2 Ab, rabbit polyclonal anti-IκB-α Ab, rabbit polyclonal anti-phospho Akt Ab, and rabbit polyclonal anti-Akt Ab). Goat anti-mouse/goat anti-rabbit or swain anti-goat antibodies conjugated with horseradish peroxidase (Bio-Rad Laboratories, Hercules, Calif.) were used to visualize immunoreactive proteins at a 1:4000 dilution using ECL detection reagent (Amersham Pharmacia Biotech Inc., Piscataway, N.J.).

[10] = Seq. III: pretreated with GrB/scFvMEL for 6 h, then agent for 72 h
[11] = Seq. IV: agent for 72 h without GrB/scFvMEL pretreatment

gp240 antigen (high-molecular-weight glycoprotein gp240 on human melanoma cells) (human), sequence (Q6UVK1 30-2322): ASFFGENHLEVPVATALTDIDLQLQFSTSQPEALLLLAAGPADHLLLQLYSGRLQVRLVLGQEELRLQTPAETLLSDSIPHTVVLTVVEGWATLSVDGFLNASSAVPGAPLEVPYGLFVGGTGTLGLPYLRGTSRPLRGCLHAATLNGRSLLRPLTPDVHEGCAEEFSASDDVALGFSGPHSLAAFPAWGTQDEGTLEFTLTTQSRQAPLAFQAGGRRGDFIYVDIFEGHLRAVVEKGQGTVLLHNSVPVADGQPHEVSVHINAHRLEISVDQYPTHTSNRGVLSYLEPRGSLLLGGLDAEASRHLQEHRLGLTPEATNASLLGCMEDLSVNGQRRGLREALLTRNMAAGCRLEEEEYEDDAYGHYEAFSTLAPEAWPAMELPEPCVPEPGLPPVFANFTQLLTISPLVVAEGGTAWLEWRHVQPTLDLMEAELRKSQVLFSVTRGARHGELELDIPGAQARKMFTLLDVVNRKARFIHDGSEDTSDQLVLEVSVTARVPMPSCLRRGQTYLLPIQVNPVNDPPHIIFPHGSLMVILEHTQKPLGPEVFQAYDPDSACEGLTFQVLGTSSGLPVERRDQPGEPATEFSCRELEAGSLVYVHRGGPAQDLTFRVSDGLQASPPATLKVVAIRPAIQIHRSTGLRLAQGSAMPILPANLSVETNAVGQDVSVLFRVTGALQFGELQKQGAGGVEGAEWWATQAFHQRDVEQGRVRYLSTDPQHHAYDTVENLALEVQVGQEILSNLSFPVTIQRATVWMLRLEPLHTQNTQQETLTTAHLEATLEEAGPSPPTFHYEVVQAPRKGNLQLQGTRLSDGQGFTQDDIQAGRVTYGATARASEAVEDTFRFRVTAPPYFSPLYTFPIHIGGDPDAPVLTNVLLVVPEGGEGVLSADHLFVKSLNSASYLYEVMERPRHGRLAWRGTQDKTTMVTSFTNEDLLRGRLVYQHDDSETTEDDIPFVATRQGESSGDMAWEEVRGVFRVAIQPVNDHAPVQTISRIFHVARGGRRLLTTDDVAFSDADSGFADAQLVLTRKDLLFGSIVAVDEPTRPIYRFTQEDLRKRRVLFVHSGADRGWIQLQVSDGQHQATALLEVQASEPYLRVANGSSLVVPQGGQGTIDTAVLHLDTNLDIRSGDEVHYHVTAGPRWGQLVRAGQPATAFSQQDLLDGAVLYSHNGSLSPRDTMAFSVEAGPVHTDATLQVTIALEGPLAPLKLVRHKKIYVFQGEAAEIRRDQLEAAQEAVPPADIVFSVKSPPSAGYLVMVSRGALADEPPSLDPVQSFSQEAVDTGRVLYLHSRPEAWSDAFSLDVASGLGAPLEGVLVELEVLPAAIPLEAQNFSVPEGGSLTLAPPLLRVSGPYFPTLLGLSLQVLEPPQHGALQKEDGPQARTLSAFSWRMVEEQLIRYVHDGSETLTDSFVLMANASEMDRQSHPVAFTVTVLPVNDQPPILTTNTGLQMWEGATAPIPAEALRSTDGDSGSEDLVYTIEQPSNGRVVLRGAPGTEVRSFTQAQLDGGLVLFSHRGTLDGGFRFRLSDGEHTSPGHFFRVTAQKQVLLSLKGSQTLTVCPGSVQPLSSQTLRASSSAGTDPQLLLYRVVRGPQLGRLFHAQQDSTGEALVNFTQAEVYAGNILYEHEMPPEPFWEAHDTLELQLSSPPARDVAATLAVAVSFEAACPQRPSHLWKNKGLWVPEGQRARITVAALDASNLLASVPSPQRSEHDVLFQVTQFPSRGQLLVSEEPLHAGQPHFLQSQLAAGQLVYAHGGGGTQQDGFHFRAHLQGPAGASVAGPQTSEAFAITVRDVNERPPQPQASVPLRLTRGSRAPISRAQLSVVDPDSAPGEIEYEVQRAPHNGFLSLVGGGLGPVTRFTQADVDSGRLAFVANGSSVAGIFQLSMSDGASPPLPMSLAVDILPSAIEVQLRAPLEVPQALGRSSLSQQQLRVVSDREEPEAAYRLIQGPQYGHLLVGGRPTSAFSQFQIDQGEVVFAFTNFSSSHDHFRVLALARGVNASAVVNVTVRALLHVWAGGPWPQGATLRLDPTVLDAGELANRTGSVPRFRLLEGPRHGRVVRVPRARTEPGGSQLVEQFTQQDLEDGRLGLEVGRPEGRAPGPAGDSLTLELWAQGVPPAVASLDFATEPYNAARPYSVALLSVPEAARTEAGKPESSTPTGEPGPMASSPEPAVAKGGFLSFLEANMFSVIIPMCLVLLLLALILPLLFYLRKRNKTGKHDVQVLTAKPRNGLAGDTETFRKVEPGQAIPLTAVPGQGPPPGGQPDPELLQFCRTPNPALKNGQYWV

Row | Molecule | antitumor activity on co-administration with GrB/scFvMEL (A375-M Cells) | % cytotoxicity (A375-M Cells; [10]) | % cytotoxicity (A375-M Cells; [11]) | IC50 [1] | IC50 (Capan-2; Homo sapiens, Capan-2) | IC50 (AsPc-1; Homo sapiens, ASPC1) | IC50 (L3.6pl; Homo sapiens, L3.6pl) | IC50 (Capan-1; Homo sapiens, CAPAN-1) | other results
1 | O=c1[nH]cc(F)c(=O)[nH]1 [5-Fluorouracil, 5-fluorouracil] | additive | 44.43 ± 2.118% | 21.90 ± 0.794% | 1000 to 300000 nM | 300000 nM | 7500 nM | 1000 nM | 6000 nM | Akt (L3.6pl cells): NE; Bcl-2 (L3.6pl cells): NE; inhibition of Bcl-2 expression levels (L3.6pl cells): no impact; p-Akt (L3.6pl cells): NE; Caspase-3 cleavage (L3.6pl cells; 48 hr): NE; Caspase-8 cleavage (L3.6pl cells; 48 hr): NE; PARP cleavage (L3.6pl cells; 48 hr): NE
2 | Nc1ccn([C@@H]2O[C@H](CO)[C@@H](O)[C@@H]2O)c(=O)n1 [Ara C, cytarabine] | additive | 68.70 ± 0.950% | 62.10 ± 1.054% |  |  |  |  |  | 
3 | N.N.[Cl][Pt][Cl] [Cisplatin] | synergistic |  |  |  |  |  |  |  | cytotoxic effect of agent combined with scFv23/TNF [2]: antagonistic cytotoxic effects in 3/4 cell lines; IC50 (Capan-2): 50000 nM; IC50 (AsPc-1): 14000 nM; IC50 (L3.6pl): 3600 nM; IC50 (Capan-1): 4500 nM
4 | COc1cccc2c1C(=O)c1c(O)c3c(c(O)c1C2=O)C[C@@](O)(C(=O)CO)C[C@@H]3O[C@H]1C[C@H](N)[C@H](O)[C@H](C)O1 [Doxorubicin] | synergistic | 33.73 ± 1.590% | 30.33 ± 1.093% | 6 to 700 nM | 500 nM | 320 nM | 30 nM | 60 nM | IC50 (parental A375 cells): 0.5 nM; IC50 [3]: 200 nM
5 | COc1cc([C@@H]2c3cc4c(cc3[C@@H](O[C@@H]3O[C@@H]5CO[C@@H](C)O[C@H]5[C@H](O)[C@H]3O)[C@H]3COC(=O)[C@H]23)OCO4)cc(OC)c1O [Etoposide] | additive | 59.80 ± 1.986% | 51.27 ± 1.102% | 1000 to 300000 nM | 40000 nM | 28000 nM | 2000 nM | 2000 nM | 
6 | Nc1ccn([C@@H]2O[C@H](CO)[C@@H](O)C2(F)F)c(=O)n1 [Gemcitabine] |  |  |  | 6 to 700 nM | 150 nM | 200 nM | 6 nM | 20 nM | cytotoxic effect of agent combined with scFv23/TNF [2]: antagonistic cytotoxic effects in 3/4 cell lines
7 | CC[C@]1(O)C[C@H]2CN(CCc3c([nH]c4ccccc34)[C@@](C(=O)OC)(c3cc4c(cc3OC)N(C=O)[C@H]3[C@@](O)(C(=O)OC)[C@H](OC(C)=O)[C@]5(CC)C=CCN6CC[C@]43[C@@H]65)C2)C1 [VCR, vincristine] | synergistic |  |  |  |  |  |  |  | 
8 | GrB/scFvMEL fusion construct (from UniProt P10144 21-247) |  |  |  |  |  |  |  |  | I.C.50, 72-h cytotoxicity (crystal violet), A375-M cells [4]: 32.1 nM; I.C.50, 72-h cytotoxicity (crystal violet), MEL-526 cells [4]: 50 nM; I.C.50, 72-h cytotoxicity (crystal violet), TXM-1 cells (very low-level gp240 expression) [4]: > 1 µM; I.C.50, 72-h cytotoxicity (crystal violet), TXM-13 cells [4]: 200 nM; I.C.50, 72-h cytotoxicity (crystal violet), TXM-18L cells [4]: 158 nM
9 | monoclonal antibody ZME-018 IgG2a |  |  |  |  |  |  |  |  | Gp240 Antigen % positive [5]: 97.8%; Gp240 Antigen % positive [6]: 4.6%; Gp240 Antigen % positive [7]: 40.9%; Gp240 Antigen % positive [8]: 98.9%
10 | B1 |  |  |  |  |  |  |  |  | Akt [9]: NE; Caspase-3 cleavage [9]: NE; Caspase-8 cleavage [9]: NE; DNA fragmentation [9]: NE; IκB-α [9]: NE*; PARP cleavage [9]: NE; TRADD [9]: NE; TRAF-2 [9]: NE; p-Akt [9]: ↑
